Measurements as given in ChEMBL document CHEMBL1149134, “2-aminothiazole-derived opioids. Bioisosteric replacement of phenols” (J Med Chem, 2004).

Assays:
[1] = target: Delta-type opioid receptor (Homo sapiens, UniProt P41143); assay: Inhibition of [3H]naltrindole binding to opioid receptor delta 1 of Chinese hamster ovary membrane; parameters: species or system Cricetulus griseus
[2] = target: T1, Kappa-type opioid receptor (Homo sapiens, UniProt P41145); parameters: species or system Cricetulus griseus
Description: Inhibition of [3H]U-69593 binding to Opioid receptor kappa 1 of Chinese hamster ovary membrane

[3] = target: T1, Kappa-type opioid receptor; assay: Binding ability against kappa opioid receptor by stimulating the [35S]GTP-gamma-S, radioligand in Chinese hamster ovary membranes; type: functional, cell membranes; details: Cricetulus griseus
[4] = target: T1, Kappa-type opioid receptor; assay: Agonistic activity against kappa opioid receptor in Chinese hamster ovary membranes; type: functional, cell membranes, Cricetulus griseus
Mu-type opioid receptor [5] = target: T2, Mu-type opioid receptor (Homo sapiens, UniProt P35372); parameters: species or system Cricetulus griseus
Description: Inhibition of [3H]-DAMGO binding to Opioid receptor mu 1 of Chinese hamster ovary membrane

Mu-type opioid receptor [6] = target: T2, Mu-type opioid receptor
Description: Agonistic activity against Opioid receptor mu 1 in Chinese hamster ovary membranes

T2 sequence (P35372 whole entry): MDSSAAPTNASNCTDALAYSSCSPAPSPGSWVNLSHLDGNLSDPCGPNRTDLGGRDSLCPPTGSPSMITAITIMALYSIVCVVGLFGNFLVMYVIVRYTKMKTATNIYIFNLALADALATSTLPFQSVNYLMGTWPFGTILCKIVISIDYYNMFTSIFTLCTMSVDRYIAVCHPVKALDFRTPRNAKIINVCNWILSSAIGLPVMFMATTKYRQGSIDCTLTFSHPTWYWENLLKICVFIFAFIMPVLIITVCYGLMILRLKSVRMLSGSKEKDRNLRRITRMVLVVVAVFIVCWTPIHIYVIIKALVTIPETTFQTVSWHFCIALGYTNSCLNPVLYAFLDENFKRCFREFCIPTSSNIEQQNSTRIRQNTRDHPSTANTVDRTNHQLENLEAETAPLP
Delta-type opioid receptor, sequence (P41143 whole entry): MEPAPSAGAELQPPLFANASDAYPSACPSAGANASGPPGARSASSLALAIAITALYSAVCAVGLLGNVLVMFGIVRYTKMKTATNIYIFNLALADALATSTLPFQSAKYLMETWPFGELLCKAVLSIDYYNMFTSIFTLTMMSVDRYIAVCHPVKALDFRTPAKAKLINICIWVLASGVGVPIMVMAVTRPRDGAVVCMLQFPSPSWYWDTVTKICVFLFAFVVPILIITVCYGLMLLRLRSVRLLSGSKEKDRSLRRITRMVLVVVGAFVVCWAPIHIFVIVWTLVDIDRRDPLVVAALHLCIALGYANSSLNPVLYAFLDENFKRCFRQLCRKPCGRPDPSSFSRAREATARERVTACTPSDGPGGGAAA
T1 sequence (P41145 whole entry): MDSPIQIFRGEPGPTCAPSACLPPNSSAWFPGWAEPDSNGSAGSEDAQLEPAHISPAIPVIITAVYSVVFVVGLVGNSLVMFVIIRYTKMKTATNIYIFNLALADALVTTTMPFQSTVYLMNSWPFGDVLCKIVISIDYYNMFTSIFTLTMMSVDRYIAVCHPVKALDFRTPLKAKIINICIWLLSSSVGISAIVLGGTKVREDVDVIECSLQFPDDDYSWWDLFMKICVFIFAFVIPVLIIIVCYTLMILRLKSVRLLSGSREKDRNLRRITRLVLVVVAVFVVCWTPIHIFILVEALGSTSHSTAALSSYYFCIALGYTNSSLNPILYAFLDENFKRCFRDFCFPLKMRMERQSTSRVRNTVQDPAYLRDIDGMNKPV

Work on `C[C@H]1C2Cc3ccc(O)cc3[C@]1(C)CCN2CC1CC1` yielded a Ki [1] of 1.1 nM and a Ki [2] of 0.18 nM.
`Nc1nc2cc3c(cc2s1)C[C@@H]1[C@@H]2CCCC[C@]32CCN1CC1CCC1` gave an Emax [3] of 80% and an EC50 [4] of 29 nM.
`C[C@H]1[C@H]2Cc3cc4sc(N)nc4cc3[C@]1(C)CCN2CC1CCC1` gave a Ki [1] of 93 nM, a Ki (Mu-type opioid receptor [5]) of 8.3 nM and a Ki [2] of 0.49 nM.
Work on `Nc1nc2cc3c(cc2s1)C[C@@H]1[C@@H]2CCCC[C@]32CCN1CC1CC1` yielded an EC50 (Mu-type opioid receptor [6]) of 73 nM, an Emax [3] of 80% and an EC50 [4] of 2.4 nM.
`CN1CC[C@]23c4c5cc6sc(N)nc6c4O[C@H]2[C@@H](O)CCC3[C@H]1C5` (some centres not stated) showed a Ki [1] of 32 nM, a Ki (Mu-type opioid receptor [5]) of 30 nM and a Ki [2] of 220 nM.
`Nc1nc2cc3c(cc2s1)C(=O)[C@@H]1C2CCCC[C@]32CCN1CC1CCC1` (some centres not stated) was tested, and the Ki [1] was greater than 10000 nM, the Ki (Mu-type opioid receptor [5]) was 200 nM and the Ki [2] was 13 nM.
`C[C@H]1[C@H]2Cc3cc4sc(N)nc4cc3[C@]1(C)CCN2CC1CC1` was tested, and the Ki [1] was 940 nM, the Ki (Mu-type opioid receptor [5]) was 48 nM and the Ki [2] was 6.7 nM.
For `CN1CC[C@]23CCCC[C@H]2[C@H]1Cc1cc2sc(N)nc2cc13` (stereo in doubt; 4), the Ki [1] was 190 nM, the Ki (Mu-type opioid receptor [5]) was 1.1 nM and the Ki [2] was 6.4 nM.
